Assay results from PubChem BioAssay (NCI).
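Values below derive from 48-hour exposures of cells grown in 96-well plates, with endpoints linearly interpolated between the two concentrations bracketing the appropriate inhibition level. GI50 is the concentration that inhibits growth by half. The concentration for full growth arrest is given as TGI.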

Columns and labels:
Assay in all cases: NCI tumour cell line growth inhibition, 48 h
[1] = test system: OVCAR-8 ovarian
[2] = test system: PC-3 prostate
[3] = test system: SNB-75 CNS
[4] = test system: HCT-15 colon
[5] = test system: BT-549 breast
[6] = test system: MDA-MB-231 breast
[7] = test system: A498 renal
[8] = test system: IGROV1 ovarian
[9] = test system: LOX IMVI melanoma
[10] = test system: NCI-H226 lung
[11] = test system: MOLT-4 leukemia
[12] = test system: K-562 leukemia
[13] = test system: SK-MEL-5 melanoma
[14] = test system: COLO 205 colon
[15] = test system: EKVX NSCLC
[16] = test system: SK-OV-3 ovarian
[17] = test system: 786-0 renal
[18] = test system: SNB-19 CNS
[19] = test system: SK-MEL-2 melanoma
[20] = test system: A549 NSCLC
[21] = test system: NCI-H460 lung
[22] = test system: SN12C renal
[23] = test system: RXF 393 renal
[24] = test system: SK-MEL-28 melanoma
[25] = test system: HOP-92 NSCLC
[26] = test system: MCF7 breast
[27] = test system: ACHN renal
[28] = test system: HCT-116 colon
[29] = test system: KM12 colon
[30] = test system: DU-145 prostate
[31] = test system: RPMI-8226 leukemia
[32] = test system: OVCAR-5 ovarian
[33] = test system: SF-268 CNS
[34] = test system: HT29 colon
[35] = test system: HS 578T breast
[36] = test system: SF-539 CNS
[37] = test system: TK-10 renal
[38] = test system: UACC-257 melanoma
[39] = test system: HOP-62 NSCLC
[40] = test system: NCI/ADR-RES ovarian
[41] = test system: NCI-H23 lung
[42] = test system: M14 melanoma
[43] = test system: SW-620 colon
[44] = test system: UACC-62 melanoma
[45] = test system: HL-60(TB) leukemia
[46] = test system: U251 CNS
[47] = test system: UO-31 renal
[48] = test system: CAKI-1 renal
[49] = test system: OVCAR-4 ovarian
[50] = test system: MALME-3M melanoma
[51] = test system: HCC-2998 colon
[52] = test system: CCRF-CEM leukemia
[53] = test system: MDA-MB-435
[54] = test system: SF-295 CNS
[55] = test system: NCI-H522 lung

Question: With `COc1ccc2c(c1)SC1=NNC(Cl)C(=O)N12` (stereo not given) as the compound, how does the GI50 [1] read?
Answer: 21.5 µM

Question: And the TGI [1]?
Answer: 54.2 µM

Question: And the GI50 [2]?
Answer: 37 µM

Question: What about the TGI [2] of the same compound?
Answer: > 100 µM

Question: And the GI50 [3]?
Answer: 30.3 µM

Question: And the TGI [3]?
Answer: 83.5 µM

Question: What about the GI50 [4] of the same compound?
Answer: 15.8 µM

Question: And the TGI [4]?
Answer: 38.4 µM

Question: And the GI50 [5]?
Answer: 17.2 µM

Question: What about the TGI [5] of the same compound?
Answer: 40.6 µM

Question: What about the GI50 [6] of the same compound?
Answer: 15.3 µM

Question: And the TGI [6]?
Answer: 35.6 µM

Question: What about the GI50 [7] of the same compound?
Answer: 26.1 µM

Question: And the TGI [7]?
Answer: 53.3 µM

Question: What about the GI50 [8] of the same compound?
Answer: 25.2 µM

Question: What about the TGI [8] of the same compound?
Answer: > 100 µM

Question: And the GI50 [9]?
Answer: 16 µM

Question: What about the TGI [9] of the same compound?
Answer: 37.4 µM

Question: And the GI50 [10]?
Answer: 16.2 µM

Question: And the TGI [10]?
Answer: 64.3 µM

Question: What about the GI50 [11] of the same compound?
Answer: 31.2 µM

Question: And the TGI [11]?
Answer: > 100 µM

Question: What about the GI50 [12] of the same compound?
Answer: 35.3 µM

Question: What about the TGI [12] of the same compound?
Answer: > 100 µM

Question: And the GI50 [13]?
Answer: 15.6 µM

Question: And the TGI [13]?
Answer: 34 µM

Question: What about the GI50 [14] of the same compound?
Answer: 16.7 µM

Question: And the TGI [14]?
Answer: 44.3 µM

Question: What about the GI50 [15] of the same compound?
Answer: 10.5 µM

Question: What about the TGI [15] of the same compound?
Answer: 29.1 µM

Question: What about the GI50 [16] of the same compound?
Answer: 33 µM

Question: And the TGI [16]?
Answer: > 100 µM

Question: What about the GI50 [17] of the same compound?
Answer: 33.2 µM

Question: What about the TGI [17] of the same compound?
Answer: > 100 µM

Question: And the GI50 [18]?
Answer: 38.4 µM

Question: What about the TGI [18] of the same compound?
Answer: > 100 µM

Question: And the GI50 [19]?
Answer: 42.1 µM

Question: And the TGI [19]?
Answer: > 100 µM

Question: What about the GI50 [20] of the same compound?
Answer: 38.1 µM

Question: What about the TGI [20] of the same compound?
Answer: > 100 µM

Question: What about the GI50 [21] of the same compound?
Answer: 29.5 µM

Question: What about the TGI [21] of the same compound?
Answer: > 100 µM

Question: And the GI50 [22]?
Answer: 16.5 µM

Question: What about the TGI [22] of the same compound?
Answer: 37.3 µM

Question: What about the GI50 [23] of the same compound?
Answer: 18.4 µM

Question: What about the TGI [23] of the same compound?
Answer: 59.1 µM

Question: What about the GI50 [24] of the same compound?
Answer: 13.7 µM

Question: What about the TGI [24] of the same compound?
Answer: 35.2 µM

Question: And the GI50 [25]?
Answer: 20.1 µM

Question: And the TGI [25]?
Answer: 56.2 µM

Question: What about the GI50 [26] of the same compound?
Answer: 24.5 µM

Question: And the TGI [26]?
Answer: > 100 µM

Question: What about the GI50 [27] of the same compound?
Answer: 12.4 µM

Question: And the TGI [27]?
Answer: 26.3 µM

Question: And the GI50 [28]?
Answer: 24 µM

Question: What about the TGI [28] of the same compound?
Answer: 87.3 µM

Question: What about the GI50 [29] of the same compound?
Answer: 20.7 µM

Question: And the TGI [29]?
Answer: 48 µM

Question: And the GI50 [30]?
Answer: 12.8 µM

Question: And the TGI [30]?
Answer: 30.3 µM

Question: And the GI50 [31]?
Answer: 18.2 µM

Question: What about the TGI [31] of the same compound?
Answer: 54.1 µM

Question: What about the GI50 [32] of the same compound?
Answer: 27.9 µM

Question: And the TGI [32]?
Answer: 94.1 µM

Question: And the GI50 [33]?
Answer: 24.2 µM

Question: What about the TGI [33] of the same compound?
Answer: 62.1 µM

Question: What about the GI50 [34] of the same compound?
Answer: 11.8 µM

Question: What about the TGI [34] of the same compound?
Answer: 35.1 µM

Question: And the GI50 [35]?
Answer: 40.4 µM

Question: And the TGI [35]?
Answer: > 100 µM

Question: And the GI50 [36]?
Answer: 15.6 µM

Question: And the TGI [36]?
Answer: 37.8 µM

Question: And the GI50 [37]?
Answer: 26.6 µM

Question: And the TGI [37]?
Answer: 81.1 µM

Question: What about the GI50 [38] of the same compound?
Answer: 18.2 µM

Question: What about the TGI [38] of the same compound?
Answer: 42.5 µM

Question: And the GI50 [39]?
Answer: 45.5 µM

Question: And the TGI [39]?
Answer: > 100 µM

Question: And the GI50 [40]?
Answer: 19.8 µM

Question: What about the TGI [40] of the same compound?
Answer: 47.6 µM

Question: And the GI50 [41]?
Answer: 18 µM

Question: What about the TGI [41] of the same compound?
Answer: 39.6 µM

Question: What about the GI50 [42] of the same compound?
Answer: 17.3 µM

Question: And the TGI [42]?
Answer: 48.4 µM

Question: What about the GI50 [43] of the same compound?
Answer: 21.8 µM

Question: What about the TGI [43] of the same compound?
Answer: 65.7 µM

Question: What about the GI50 [44] of the same compound?
Answer: 15.6 µM

Question: What about the TGI [44] of the same compound?
Answer: 36 µM

Question: And the GI50 [45]?
Answer: 33.9 µM

Question: What about the TGI [45] of the same compound?
Answer: > 100 µM

Question: And the GI50 [46]?
Answer: 18.9 µM

Question: And the TGI [46]?
Answer: 45.1 µM

Question: And the GI50 [47]?
Answer: 5.9 µM

Question: And the TGI [47]?
Answer: > 100 µM

Question: With `Cc1ccc(-c2c(C#N)c(-c3ccccc3)c(C#N)c(=O)n2NS(=O)(=O)c2ccc(C)cc2)cc1` as the compound, how does the TGI [1] read?
Answer: > 100 µM

Question: What about the TGI [48] of the same compound?
Answer: > 100 µM

Question: And the TGI [2]?
Answer: > 100 µM

Question: What about the TGI [3] of the same compound?
Answer: > 100 µM

Question: And the TGI [4]?
Answer: > 100 µM

Question: And the TGI [5]?
Answer: > 100 µM

Question: And the TGI [6]?
Answer: > 100 µM

Question: What about the TGI [7] of the same compound?
Answer: > 100 µM

Question: What about the TGI [8] of the same compound?
Answer: > 100 µM

Question: And the TGI [49]?
Answer: > 100 µM

Question: And the TGI [9]?
Answer: > 100 µM

Question: What about the TGI [10] of the same compound?
Answer: > 100 µM

Question: What about the TGI [11] of the same compound?
Answer: 41.1 µM

Question: What about the TGI [12] of the same compound?
Answer: > 100 µM

Question: What about the TGI [13] of the same compound?
Answer: 31.9 µM

Question: And the TGI [14]?
Answer: > 100 µM

Question: And the TGI [15]?
Answer: > 100 µM

Question: And the TGI [16]?
Answer: > 100 µM

Question: What about the TGI [17] of the same compound?
Answer: > 100 µM

Question: And the TGI [18]?
Answer: 33.5 µM

Question: And the TGI [19]?
Answer: > 100 µM

Question: What about the TGI [50] of the same compound?
Answer: > 100 µM

Question: And the TGI [20]?
Answer: > 100 µM

Question: What about the TGI [21] of the same compound?
Answer: > 100 µM

Question: What about the TGI [51] of the same compound?
Answer: > 100 µM

Question: What about the TGI [22] of the same compound?
Answer: > 100 µM

Question: What about the TGI [23] of the same compound?
Answer: > 100 µM

Question: What about the TGI [24] of the same compound?
Answer: > 100 µM

Question: And the TGI [25]?
Answer: > 100 µM

Question: What about the TGI [26] of the same compound?
Answer: > 100 µM

Question: What about the TGI [27] of the same compound?
Answer: > 100 µM

Question: And the TGI [28]?
Answer: > 100 µM

Question: What about the TGI [29] of the same compound?
Answer: > 100 µM

Question: What about the TGI [31] of the same compound?
Answer: 8.79 µM

Question: And the TGI [32]?
Answer: > 100 µM

Question: What about the TGI [33] of the same compound?
Answer: > 100 µM

Question: And the TGI [34]?
Answer: > 100 µM

Question: What about the TGI [35] of the same compound?
Answer: > 100 µM

Question: What about the TGI [36] of the same compound?
Answer: > 100 µM

Question: What about the TGI [37] of the same compound?
Answer: > 100 µM

Question: What about the TGI [52] of the same compound?
Answer: 89.7 µM

Question: And the TGI [38]?
Answer: > 100 µM

Question: What about the TGI [39] of the same compound?
Answer: > 100 µM

Question: And the TGI [40]?
Answer: > 100 µM

Question: And the TGI [53]?
Answer: > 100 µM

Question: What about the TGI [54] of the same compound?
Answer: > 100 µM

Question: And the TGI [42]?
Answer: > 100 µM

Question: And the TGI [43]?
Answer: > 100 µM

Question: And the TGI [55]?
Answer: > 100 µM

Question: And the TGI [44]?
Answer: > 100 µM

Question: And the TGI [46]?
Answer: > 100 µM
